# In the NIST ThermoML archive (doi:10.1016/j.fluid.2015.03.036):
# ± gives the expanded uncertainty stated by the source.
# What was measured:
# [1] = Solid-liquid equilibrium temperature; settings: 100 kPa; Crystal; DTA
# [2] = Molar enthalpy of transition or fusion; settings: Crystal; DSC
structure (smiles),measurement,setting,value
O=P(Nc1ccccc1)(Oc1ccccc1)Oc1ccccc1 [diphenyl anilinophosphonate],Solid-liquid equilibrium temperature,[1],406.91 ± 0.32 K
same,Molar enthalpy of transition or fusion,[2],0.0716 ± 0.17 kJ/mol
